Marks after values point to notes of the source that are not given here.
Columns and labels:
[1] = Method in brief: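 Test compounds formulated in ethanol:Cremophor EL:saline (5:5:90), vehicle alone as control, in HCT-116 subcutaneous xenografts in female Balb/c nudes (6/group, start 60–150 mm^3). Weight measured three times weekly, tumour weight at end; unpaired t-test on Mean±SEM data.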
[2] = system: HCT-116 colon cancer xenografts; assay: Tumor growth inhibition of HCT-116 colon cancer xenografts in tumor-bearing nude mice (tumor volume, TGI %, RTV, T/C %); assay type: in vivo, Balb/c Nude mice; settings: G10-G16 groups, single IP 400 mg/kg
Method in brief: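 Tumors in HCT-116-inoculated nude mice were sized three times weekly by diameter, with volume V=3/4π(D/2)^3. Significance set at P<0.05.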

ICR mice = assay: in vivo; settings: female ICR mice; single-dose ip
Method in brief: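 MTD, the dose without mortality, body-weight loss over 10% from Day 0 or marked adverse signs, was found by stepwise up/down single intraperitoneal dosing of female SPF ICR mice. Vehicle: ethanol:Cremophor EL:saline 5:5:90. Animals weighed daily and clinically checked twice daily for up to 14 days.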

[3] = Day 1, G10-G16 groups, single IP 400 mg/kg, Mean±SEM
[4] = Day 2, G10-G16 groups, single IP 400 mg/kg, Mean±SEM
[5] = Day 4, G10-G16 groups, single IP 400 mg/kg, Mean±SEM
[6] = Day 7, G10-G16 groups, single IP 400 mg/kg, Mean±SEM
[7] = Day 9, G10-G16 groups, single IP 400 mg/kg, Mean±SEM
[8] = Day 11, G10-G16 groups, single IP 400 mg/kg, Mean±SEM
[9] = Day 14, G10-G16 groups, single IP 400 mg/kg, Mean±SEM
[10] = Day 16, G10-G16 groups, single IP 400 mg/kg, Mean±SEM
[11] = Day 18, G10-G16 groups, single IP 400 mg/kg, Mean±SEM
[12] = Day 21, G10-G16 groups, single IP 400 mg/kg, Mean±SEM
[13] = Day 23, G10-G16 groups, single IP 400 mg/kg, Mean±SEM
[14] = Day 25, G10-G16 groups, single IP 400 mg/kg, Mean±SEM
[15] = Day 28, G10-G16 groups, single IP 400 mg/kg, Mean±SEM
[16] = Day 30, G10-G16 groups, single IP 400 mg/kg, Mean±SEM

Structure (SMILES): O=C(COc1nc(Cl)c(Cl)cc1Cl)OCC1OC(n2cc(-c3cn(Cc4ccccc4)nn3)c(NC(=O)OCc3ccc([N+](=O)[O-])cc3)nc2=O)C(F)(F)C1O (centres unmarked) [Compound G13]
- Weight change rate, Day 0 ([1]; Day 0, G10-G16 groups, single IP 400 mg/kg): 0.00%
- Weight of mice, Day 0 ([1]; Day 0, G10-G16 groups, single IP 400 mg/kg, Mean±SEM): 20.43 ± 0.27 g
- Weight change rate, Day 1 [1, 3]: −6.73 ± 0.73 %
- Weight of mice, Day 1 [1, 3]: 19.05 ± 0.17 g
- Weight change rate, Day 2 [1, 4]: −6.78 ± 0.95 %
- Weight of mice, Day 2 [1, 4]: 19.05 ± 0.35 g
- Weight change rate, Day 4 [1, 5]: −3.29 ± 1.05%
- Weight of mice, Day 4 [1, 5]: 19.77 ± 0.40 g
- Weight change rate, Day 7 [1, 6]: −2.67 ± 1.20%
- Weight of mice, Day 7 [1, 6]: 19.90 ± 0.48 g
- Weight change rate, Day 9 [1, 7]: 0.07 ± 2.05%
- Weight of mice, Day 9 [1, 7]: 20.47 ± 0.64 g
- Weight change rate, Day 11 [1, 8]: 0.61 ± 2.23%
- Weight of mice, Day 11 [1, 8]: 20.58 ± 0.69 g
- Weight change rate, Day 14 [1, 9]: 0.35 ± 2.75%
- Weight of mice, Day 14 [1, 9]: 20.53 ± 0.79 g
- Weight change rate, Day 16 [1, 10]: 3.83 ± 3.60%
- Weight of mice, Day 16 [1, 10]: 21.25 ± 0.94 g
- Weight change rate, Day 18 [1, 11]: 4.84 ± 3.19 %
- Weight of mice, Day 18 [1, 11]: 21.45 ± 0.85 g
- Weight change rate, Day 21 [1, 12]: 4.12 ± 3.07 %
- Weight of mice, Day 21 [1, 12]: 21.30 ± 0.81 g
- Day 22 Mortality ([1]; Day 22, single IP dose (mg/kg)): 0%
- Weight change rate, Day 23 [1, 13]: 5.17 ± 4.24%
- Weight of mice, Day 23 [1, 13]: 21.44 ± 1.05 g
- Weight change rate, Day 25 [1, 14]: 9.03 ± 4.91%
- Weight of mice, Day 25 [1, 14]: 22.24 ± 1.24 g
- Weight change rate, Day 28 [1, 15]: 12.25 ± 3.97%
- Weight of mice, Day 28 [1, 15]: 23.08 ± 0.97 g
- Weight change rate, Day 30 [1, 16]: 13.32 ± 4.25%
- Weight of mice, Day 30 [1, 16]: 23.30 ± 1.07 g
- clinical symptoms ([1]; after single IP dose, compared with model control group): no significant differences in clinical symptoms
- Day 0 (RTV) ([2]; Day 0): 1.00
- Tumor volume, Day 0 ([2]; Day 0, Mean±SEM): 61.03 ± 13.76* mm^3
- Day 1 (TGI %) ([2]; Day 1): 77.92%
- Day 1 (RTV) ([2]; Day 1, Mean±SEM): 0.91 ± 0.12
- Tumor volume, Day 1 ([2]; Day 1, Mean±SEM): 48.89 ± 5.84** mm^3
- Day 2 (TGI %) ([2]; Day 2): 76.34%
- Day 2 (RTV) ([2]; Day 2, Mean±SEM): 0.95 ± 0.11
- Tumor volume, Day 2 ([2]; Day 2, Mean±SEM): 52.50 ± 8.43** mm^3
- Day 4 (TGI %) ([2]; Day 4): 73.88%
- Day 4 (RTV) ([2]; Day 4, Mean±SEM): 1.31 ± 0.07
- Tumor volume, Day 4 ([2]; Day 4, Mean±SEM): 77.58 ± 16.80** mm^3
- Day 7 (TGI %) ([2]; Day 7): 68.32%
- Day 7 (RTV) ([2]; Day 7, Mean±SEM): 2.39 ± 0.28
- Tumor volume, Day 7 ([2]; Day 7, Mean±SEM): 137.02 ± 30.02** mm^3
- Day 9 (TGI %) ([2]; Day 9): 55.73%
- Day 9 (RTV) ([2]; Day 9, Mean±SEM): 4.07 ± 0.37
- Tumor volume, Day 9 ([2]; Day 9, Mean±SEM): 261.35 ± 79.51* mm^3
- Day 11 (TGI %) ([2]; Day 11): 56.17%
- Day 11 (RTV) ([2]; Day 11, Mean±SEM): 6.38 ± 0.77
- Tumor volume, Day 11 ([2]; Day 11, Mean±SEM): 427.82 ± 136.59** mm^3
- Day 14 (TGI %) ([2]; Day 14): 46.84%
- Day 14 (RTV) ([2]; Day 14, Mean±SEM): 11.17 ± 1.45
- Tumor volume, Day 14 ([2]; Day 14, Mean±SEM): 765.65 ± 247.40* mm^3
- Day 16 (TGI %) ([2]; Day 16): 43.43%
- Day 16 (RTV) ([2]; Day 16, Mean±SEM): 15.55 ± 1.37
- Tumor volume, Day 16 ([2]; Day 16, Mean±SEM): 1024.48 ± 288.64* mm^3
- Day 18 (TGI %) ([2]; Day 18): 36.04%
- Day 18 (RTV) ([2]; Day 18, Mean±SEM): 19.86 ± 1.32
- Tumor volume, Day 18 ([2]; Day 18, Mean±SEM): 1278.22 ± 336.74 mm^3
- Day 21 (TGI %) ([2]; Day 21): 32.28%
- Day 21 (RTV) ([2]; Day 21, Mean±SEM): 26.98 ± 0.99
- Tumor volume, Day 21 ([2]; Day 21, Mean±SEM): 1655.72 ± 370.44 mm^3
- Day 23 (TGI %) ([2]; Day 23): 39.64%
- Day 23 (RTV) ([2]; Day 23, Mean±SEM): 27.42 ± 1.09
- Tumor volume, Day 23 ([2]; Day 23, Mean±SEM): 1425.63 ± 355.57 mm^3
- Day 25 (TGI %) ([2]; Day 25): 38.81%
- Day 25 (RTV) ([2]; Day 25, Mean±SEM): 30.60 ± 1.01
- Tumor volume, Day 25 ([2]; Day 25, Mean±SEM): 1580.18 ± 380.76 mm^3
- Day 28 (TGI %) ([2]; Day 28): 44.77%
- Day 28 (RTV) ([2]; Day 28, Mean±SEM): 35.76 ± 0.97
- Tumor volume, Day 28 ([2]; Day 28, Mean±SEM): 1485.25 ± 290.76 mm^3
- Day 30 (TGI %) ([2]; Day 30): 38.58%
- Day 30 (RTV) ([2]; Day 30, Mean±SEM): 42.06 ± 2.09
- Tumor volume, Day 30 ([2]; Day 30, Mean±SEM): 1723.43 ± 289.91 mm^3
- dose that could be tolerated (maximum tolerated dose, MTD) (ICR mice): 400 mg/kg
